The values below come from article PMC8219378, “A putative structural mechanism underlying the antithetic effect of homologous RND1 and RhoD GTPases in mammalian plexin regulation” (eLife, 2021).

Assay [1] addresses T1, RhoD/plexin B2-RBD complex (Homo sapiens, UniProt O00212, Q75L).
T1 construct: human RhoD 8-194 Q75L (catalytically dead), His6-tag removed by 3C protease, E. coli BL21(DE3); mouse plexin B2 intracellular region 1274-1842, tag removed, E. coli ArcticExpress(DE3), degraded in drops to RBD (1463-1565, domain-swapped dimer); with Plexin-B2 (Mus musculus)
T1 sequence (O00212 8-194 Q75L): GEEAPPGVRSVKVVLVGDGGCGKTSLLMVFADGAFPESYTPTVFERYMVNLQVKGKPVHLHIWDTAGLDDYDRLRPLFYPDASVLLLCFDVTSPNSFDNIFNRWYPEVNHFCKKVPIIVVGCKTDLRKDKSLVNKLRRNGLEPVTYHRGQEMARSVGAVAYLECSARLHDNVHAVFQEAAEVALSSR
T1 sequence (B2RXS4 1463-1565 partner): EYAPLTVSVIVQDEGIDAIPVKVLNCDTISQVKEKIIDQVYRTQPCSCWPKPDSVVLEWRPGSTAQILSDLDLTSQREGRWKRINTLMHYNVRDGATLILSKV
As to the kind of experiment: X-ray crystal structure, […] Å. To be noted: Mg2+; GTP-binding site of RhoD; RhoD loaded by EDTA exchange; complex with plexin B2 RBD.

The target in assay [2] is T2, human RhoD (residues 8-194) with the Q75L mutation, bound to GMP-PNP (human, UniProt O00212 8-194, Q75L).
T2 construct: Loaded with the GTP analogue GMP-PNP and Mg2+ before crystallization; His6 tag removed with human rhinovirus 3C protease; also called GMP-PNP-loaded RhoD; source: E. coli BL21 (DE3), purified (HisTrap, anion exchange, Superdex 75); not shown: His6, N-terminal, cleaved
T2 sequence (looked up): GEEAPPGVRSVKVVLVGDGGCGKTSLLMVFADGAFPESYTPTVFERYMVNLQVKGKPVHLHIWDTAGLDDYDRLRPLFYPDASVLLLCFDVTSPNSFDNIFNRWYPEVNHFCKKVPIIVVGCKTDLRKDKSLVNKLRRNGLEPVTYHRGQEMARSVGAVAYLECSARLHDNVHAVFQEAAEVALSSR
As to the kind of experiment: crystal structure; plexin B2 (1274-1842) and GMP-PNP-loaded RhoD mixed at 1:1 molar ratio, 6 mg/mL; crystals grown for over a month at 20 C in 0.2 M MgCl2, 22% PEG3350, 100 mM MIB pH 6.8; molecular replacement, 3.1 A; two RhoD and two RBD in the asymmetric unit. Particulars: both partners purified.

Consider `Nc1nc2c(ncn2[C@@H]2O[C@H](COP(=O)(O)OP(=O)(O)NP(=O)(O)O)[C@@H](O)[C@H]2O)c(=O)[nH]1` [GMP-PNP, guanosine 5′-[β,γ-imido]triphosphate], for which, in assay [1], the “X-ray crystal structure, 3.1 Å” value is “complex of mouse plexin B2 and human RhoD bound to the GTP analogue GMP-PNP”.

B1: mouse plexin B2 RBD (Rho-GTPase-binding domain), as found in the crystal (domain or fragment, UniProt B2RXS4 1463-1565, looked up)
chain: EYAPLTVSVIVQDEGIDAIPVKVLNCDTISQVKEKIIDQVYRTQPCSCWPKPDSVVLEWRPGSTAQILSDLDLTSQREGRWKRINTLMHYNVRDGATLILSKV
notes: Plexin B2, mouse; Expressed as the intracellular region without the juxtamembrane region (residues 1274-1842); it degraded during crystallization and the crystal held only the RBD, built as residues 1463-1509 and 1510-1565; The range is that of the residues modelled in the structure; In the crystal two RBD chains form a domain-swapped dimer (swap between residues 1509 and 1510), which the authors …
On to B1, for which the binding result in assay [2] was “binds”.
